Assay results published in paper PMC4869729 (Chemical Science, 2015).

Tests used:
[1] = test system: TrxR in human ovarian A2780 cancer cells; conditions: 10 μM; cited from earlier work
[2] = test system: TrxR in human breast MCF-7 cancer cells; conditions: MCF-7 cells, 4 μM; cited from earlier work
thioredoxin reductase = experiment: Thioredoxin reductase activity in treated Caki-1 cells; assay type: cell-based, human
MAPKAPK-3 = experiment: Immunoblotting of MAPKAPK-3 in Auranofin treated Caki-1 cells; assay type: cell-based, human; conditions: Caki-1, Western blot (Fig. S46)
[3] = test system: human renal Caki-1 cancer cell lines; experiment: XTT cytotoxicity assay, Caki-1; assay type: cell-based; conditions: read-out: IC50 Caki-1, 72 h incubation
[4] = test system: non-tumorigenic human embryonic kidney cell lines HEK-293T; experiment: XTT cytotoxicity assay, HEK-293T; assay type: cell-based; conditions: read-out: IC50 HEK-293T, 72 h incubation
plasmid (pBR322) DNA = experiment: Electrophoresis mobility shift assay; assay type: binding; conditions: pBR322, metal/DNAbp ratios 0.25-2.0, 37 °C, 20 h
[5] = test system: human renal proximal tubular cells (RPTC); experiment: XTT cytotoxicity assay, RPTC; assay type: cell-based; conditions: read-out: IC50 RPTC, 72 h incubation

Compound | inhibition of total TrxR activity [1] [%] | inhibition of total TrxR activity [2] [%] | inhibition of thioredoxin reductase activity (thioredoxin reductase; 5 μM, 5 hour incubation) [%] | IC50 (thioredoxin reductase; read-out: IC50 thioredoxin reductase, after 12 hours) [µM] | expression of MAPKAPK-3 (MAPKAPK-3) | IC50 [3] [µM] | IC50 [4] [µM] | effect on electrophoretic mobility of plasmid forms (plasmid (pBR322) DNA) | IC50 [5] [µM]
CC(=O)OC[C@H]1O[C@@H]([S-])[C@H](OC(C)=O)[C@@H](OC(C)=O)[C@@H]1OC(C)=O.CCP(CC)CC.[Au+] [Auranofin] | 30 | 18 | 74.1 | 0.61 | failed to down-regulate MAKPAPK-3 |  |  |  | 
N.N.[Cl][Pt][Cl] [Cisplatin] |  |  |  |  |  | 29 ± 4.11 | 3.27 ± 0.13 | decreased mobility of the CCC form and increased mobility of the OC form | 
COc1ccc(C[C]2([Ti+2][C]3(Cc4ccc(OC)cc4)C=CC=C3)C=CC=C2)cc1.[Cl-].[Cl-] [Titanocene Y] |  |  |  |  |  | 29.4 ± 4.18 |  |  | 
[Au(Hmba)(PPh3)] [compound 4] |  |  |  |  |  | 2.76 ± 0.35 | 1.11 ± 0.65 | did not affect the mobility of the faster-running supercoiled form | 3.87 ± 0.15
